These results are taken from patent US11304958B2, “Multidentate phenanthridine-containing ligand frameworks and their planar monofunctional platinum complexes for cancer treatment” (UNIVERSITY OF MANITOBA, priority 2018, dated 2022).

Where two headings read alike, the source gives them in different places.

Data set [1] deals with A2780 (cisplatin sensitive) ovarian cancer cell line. The data set is described as follows: MTT cytotoxicity assay, A2780 ovarian cancer cells. It is filed as cell-based, human. The following applies: for in vitro cytotoxic activity in the absence of platinum(II): A2780 and A2780cis cell lines; for IC50: 72 h. An excerpt:
(§1) In addition, neither the 4-aminophenanthridine precursors nor the proligands L1 or L2 themselves are effective in the absence of platinum(II). As noted above, intercalation enhances covalent binding and ultimately boosts the number of complex-DNA adducts observed for phenanthriplatin, but only when these two processes are simultaneous (30). Phenanthridines in general are anticipated to interact with DNA via an intercalation mechanism, similar to the mechanism of operation of the DNA stain ethidium bromide, of which phenanthridine forms the molecular core (19). […] The differing profile compared to cisplatin (i.e., higher in vitro efficacy and lower cross-resistance) implies a different mechanism of operation from cisplatin, which, considering to the planar structure of 1 and 2 compared to phenanthriplatin (10) likely involves some degree of intercalation. The higher efficacy for 2 (R═CF3) vs 1 (R=tBu) highlights the opportunity to fine-tune biological activity via ligand backbone substitution.
(§2) In addition, neither the phenanthridinyl amines (2-R) nor the ligand itself (L2) are effective in the absence of platinum(II). While not wishing to be bound or limited to a particular theory or hypothesis, it is believed that substituted phenanthridines interact with DNA via an intercalation mechanism, similar to the mechanism of operation of the DNA stain ethidium bromide (19). […] The differing profile compared to cisplatin (i.e., higher in vitro efficacy and lower cross-resistance) implies a different mechanism of operation from cisplatin, which, considering to the planar structure of NNOPt compared to phenanthriplatin (10) likely involves some degree of intercalation. The higher efficacy for 2 (R═CF3) vs 1 (R=tBu) highlights the opportunity to fine-tune biological activity via ligand backbone substitution.
(§3) Cell line: A2780 (ovarian cells), A2780cis (ovarian cells, drug resistant)
(§4) RPMI medium: 10% FBS, 1% PS, 89% RPMI 1×, with L-glutamine
(§5) MTT (5 mg/MI Thiazolyl Blue tetrazolium bromide in PBS)
(§6) A volume of 100 μL of RPMI medium (10% FBS, 1% PS, 89% RPMI 1×, with L-glutamine) containing 2000 cells was seeded in each well of a 96-well microplate, and incubated for 24 h at 37° C. under 5% CO2. After 24 h, a volume of 50 μL of media containing the new compounds of different concentrations was added to the well. The drug-treated cells were incubated for 72 h at 37° C. with 5% CO2. A volume of 30 μL media containing MTT was added into each well, and incubated for 2-4 h at 37° C. with 5% CO2. MTT would be reduced to formazan in living cells.
(§7) Following this, the media were removed carefully by aspiration and 200 μL DMSO was added into each well. The DMSO is used to dissolve the insoluble formazan into a purple solution. The 96-well microplate with DMSO was then shaken for 10 min at room temperature. Final results were obtained by using a microplate reader to examine the absorbance at 562 nm. Analysis of the data was carried out using Origin™.
(§8) A2780 and A2780cis cell lines were cultured in RPM11640 with L-glutamine supplemented with 10% FBS and 1% PS. SKOV-3, MDA-MB-231, A549, and HEK293 cell line were cultured in DMEM 1 g/L glucose, with L-glutamine & sodium pyruvate supplemented with 10% FBS and 1% PS. MET5A cell line was cultured in M199 supplemented with 10% FBS, 1% PS, insulin, 0.1% Trace Elements B, […] Hydrocortisone, and 4 ng/mL EGF. All cell lines were incubated at 37° C. under an atmosphere containing 5% CO2. Cells were passaged by trypsinization and split in a 1:5 ratio.

Data set [2] deals with A2780cis (cisplatin resistant) ovarian cancer cell line. The data set is described as follows: MTT cytotoxicity assay, A2780cis ovarian cancer cells. Type of data set: cell-based, human. To be noted: for resistance factor RF = IC50(A2780cis)/IC50(A2780): ovarian cancer cell lines, FIG. 14B.
Description: as §1
(§9) Cisplatin and phenanthriplatin were used as controls. Cancer and normal cells were treated for 72 h and cell viability was assessed.
as §2, §3, §4, §5, §6, §7, §8
(Tetrazolium assays rely on reduction of a dye to a coloured formazan, in cell work by metabolically active cells.)

The subject of data set [3] is non-cancerous mesothelial cell line MET-5A. The data set is described as follows: Cytotoxicity screening against normal cells, MET-5A. It is filed as cell-based, human. To be noted: 72 h, compared with phenanthriplatin. The method, then:
as §9, §6, §7
(§10) A2780 and A2780cis cell lines were cultured in RPM11640 with L-glutamine supplemented with 10% FBS and 1% PS. SKOV-3, MDA-MB-231, A549, and HEK293 cell line were cultured in DMEM 1 g/L glucose, with L-glutamine & sodium pyruvate supplemented with 10% FBS and 1% PS. […]

Data set [4] concerns non-cancerous kidney cell line HEK293. In words: Cytotoxicity screening against normal cells, HEK293. It is filed as cell-based, human. The following applies: 72 h, compared with phenanthriplatin. The method, then: as §9, §6, §7, §10
Another data set deals with Human Cancer Cells. To be noted: reportedly, ref. (9); cited from earlier work.
Setting [5] is: further screening (FIG. 14A), treated for 72 h, read-out: IC50 in A2780cis cisplatin-resistant ovarian cancer cell line.
[6] abbreviates: preliminary cytotoxicity data, MTT, 72 h, read-out: A2780cis IC50.
The mark [7] stands for this setting: Homo sapiens, A2780, preliminary cytotoxicity data.
Where [8] appears, read: Homo sapiens, A2780cis, preliminary cytotoxicity data, MTT, 72 h, read-out: A2780cis IC50.

As for `CC(=O)C=C(C)Nc1cc(C(C)(C)C)cc2c1ncc1ccccc12` [Complex L1, 4-(2′-tert-butyl-4-aminophenanthridinyl)-3-penten-2-one], the “in vitro cytotoxic activity in the absence of platinum(II)” value in data set [1] is on record as “lack of activity”.

With `N.N.[Cl][Pt][Cl]` [cisplatin, cis-diaminedichloroplatinum(II), reference compound], the 50% inhibitory concentration (IC50) in data set [1] (preliminary cytotoxicity data) is 0.375 ± 0.217 µM; in data set [2] (setting [5]), 32.9 ± 8.82 µM; in data set [2] (setting [6]) it was 7.76 ± 0.497 µM. Further, in data set [2], the “resistance factor RF = IC50(A2780cis)/IC50(A2780)” value is reported as 23.

“[Pt(tBu-phenanthridine-nacac)Cl] [Complex 1]”: the IC50 in data set [1] (preliminary cytotoxicity data) was determined as 2.81 ± 0.168 µM; in data set [2] (setting [6]) it was 4.57 ± 1.41 µM.

For the molecule `CC(C)(C)c1cc(N)c2ncc3ccccc3c2c1` [Complex 2-tBu, 2-tert-butyl-4-aminophenanthridine], the half-inhibitory concentration (IC50) in data set [1] (setting [7]) amounted to 8.38 ± 2.83 µM; in data set [2] (setting [8]), 20.5 ± 6.07 µM.

“[Pt(CF3-phenanthridinenacac)Cl] [Complex 2]”: the IC50 in data set [1] (preliminary cytotoxicity data) amounted to 0.341 ± 0.112 µM; in data set [2] (setting [5]), 0.55 ± 0.22 µM; in data set [2] (setting [6]), 0.955 ± 0.106 µM. Also, in data set [2] (A2780cis, 72 h), the “IC50 times lower than that of cisplatin” value is recorded as 58 times. Further, in data set [2], the “resistance factor RF = IC50(A2780cis)/IC50(A2780)” value is 1.1. For the same molecule, the “toxicity against normal cells (MET-5A)” value in data set [3] is reported as “less toxic than phenanthriplatin”. In data set [4], the “toxicity against normal cells (HEK293)” value is recorded as “less toxic than phenanthriplatin”.

As for `CC(=O)C=C(C)Nc1cc(C(F)(F)F)cc2c1ncc1ccccc12` [Complex L2, 4-(2′-trifluoromethyl-4′-aminophenanthridinyl)-3-penten-2-one], in data set [1], the “in vitro cytotoxic activity in the absence of platinum(II)” value was “lack of activity”. For the same molecule, the half-maximal inhibitory concentration (IC50) in data set [1] (preliminary cytotoxicity data) is 7.22 ± 2.07 µM; in data set [2] (setting [6]) it was 20.1 ± 7.17 µM.

Regarding `Nc1cc(C(F)(F)F)cc2c1ncc1ccccc12` [Complex 2-CF3, 2-trifluoromethyl-4-aminophenanthridine], the results for the half-inhibitory concentration (IC50) in data set [1] (setting [7]) and in data set [2] (setting [8]) were 19.3 ± 12.1 µM and over 100 µM, respectively.

In the case of `N.N.O=[N+]([O-])[O-].[Cl][Pt+].c1ccc2c(c1)cnc1ccccc12` [phenanthriplatin, [c/s-R(NH3)2(phenanthridine)Cl][NO3], reference compound], the “resistance factor RF = IC50(A2780cis)/IC50(A2780)” value in data set [2] was found to be 2.7.

As to `N.N.O=[N+]([O-])[O-].[Cl][Pt+].c1ccncc1` [pyriplatin, [c/s-R(NH3)2(pyridine)Cl][NO3]], in the data set with Human Cancer Cells, the “potency relative to cisplatin or oxaliplatin” value is listed as “ten-fold less potent”.

The term IC50 denotes the concentration that gives 50% inhibition.
